Laboratory results: patent US6803479B2, “Reagents and method for spatio-temporal control of gene expression by illumination” (University of Maryland Biotechnology Institute, priority 2001, dated 2004)
Values after ≈ are worked out from the molar mass of the structure shown. “Also recorded” adds a separate entry of the source.

Key:
[1] = system: ecdysone receptor; settings: cited from earlier work
[2] = system: EGFP-Kir2.1 fusion protein under ecdysone promoter control (VgEcR/RXR); assay: Induction of reporter genes in primary rat anterior pituitary cells after adenovirus-mediated gene transfer; format: cell-based; settings: 24 hours, single-cell microfluorimetry
Source text: Anterior pituitary glands were removed from female Sprague-Dawley rats, enzymatically dissociated, and plated onto No. 1 polylysine-coated glass coverslips for culturing as previously described (Ho et al. 1995). The cells were doubly infected with one adenovirus (AdVgRXR) that allows constitutive expression of a modified ecdysone receptor (VgEcR) and the retinoid X receptor (RXR) and a second adenovirus (AdGFIRK) that places under ecdysone promoter control the expression of a fusion protein between EGFP and a potassium channel of the inward rectifier family (Kir2.1). For infection, the adenoviruses were applied at 200 pfu's per cell in infection medium for 3-5 hours. The cells were then allowed to recover for 24 hours before being treated with ecdysoids (ponasterone A, NSE-1) or solvent vehicle for 24 hours.
After induction, cells were then randomly chosen through a phase-contrast view and EGFP expression in each chosen cell was monitored by single-cell microfluorimetry. Because the EGFP-Kir2.1 fusion protein should be targeted to the plasma membrane, we expect its presence in the plasma membrane as well as in the Golgi-as the images in FIG. 5 indeed illustrate. A quantitative summary of the microfluorimetric data is shown in FIG. 6 (note break in y-axis scale; N shown at the base of each bar). […]

[3] = system: ecdysone receptor; assay: Activation of the ecdysone-regulable gene expression system; format: cell-based, D. melanogaster
Source text: The ecydysone-regulable gene expression system relies on a recombinant ecdysone receptor (VgEcR), which is an N-terminal truncation of the natural ecdysone receptor from D. melanogaster fused to the activation domain of VP16 from HSV; VgEcR also bears 3 point mutations in the P box of the DNA-binding domain of EcR to resemble that of the glucocorticoid receptor (GR) to allow recognition of a synthetic ecdysone-response element (E/GRE), which consists of inverted half-site recognition elements for the retinoid X receptor (RXR) and GR DNA-binding domains. The hybrid E/GRE sequence is designed to evade recognition by any endogenous nuclear receptors. With RXR, the vertebrate homologue of Drosophila ultraspiracle (Yao et al. 1992), VgEcR forms a heterodimer that binds to E/GRE and initiates transcription. The ecdysone-inducible expression system has very low basal expression (No et al. 1996), because the presence of ecdysoid hormones is obligatory for receptor heterodimerization and DNA binding (Yao et al. 1993). Finally, ecdysoid hormones have no known corresponding bioactivity in vertebrates, presumably because there are no processes homologous to molting.
That these ecdysone analogues are steroids presents the same chemical obstacle to caging as did mifepristone. Fortunately, however, members of the bisacylhydrazine family are potent activators of the ecdysone receptor, and they are accessible by facile organic synthetic routes. As shown in Preliminary Studies, we have successfully synthesized a non-steroidal ecdysoid (NSE) from this class of compounds. […] Furthermore, because non-steroidal mimics of ecdysoid molting hormone have been of great interest to the agrichemical business, the acute toxicity, mutagenicity, carcinogenicity, and teratogenicity of the bisacylhydrazine family of NSEs have been extensively tested since the compounds were serendipitously discovered as ecdysone mimetics in 1983 (see Dhadialla et al. 1998 and references therein).

[4] = Aqueous solubility; format: physicochemical; settings: aqueous KCl/HEPES buffer, 100 mM KCl, 10 mM K · HEPES, pH 7.4
[5] = system: NIH3T3-ER fibroblasts; assay: Toxicity in cell culture (CyQuant DNA quantification); format: cell-based; settings: 48 hours
Description: Cellular toxicity of NSE-1 was tested in cell culture. NIH3T3-ER fibroblasts (Stratagene, La Jolla, Calif.) were seeded into 96-well plates, allowed to attach for 24 hours in DMEM supplemented with 10% v/v fetal bovine serium (FBS). The medium was then replaced with DMEM-10 FBS containing ecdysoid drugs or solvent vehicle, and the cells were allowed to grow for 48 hours, at the end of which the cells were lysed and the amount of DNA in each well quantified through the CyQuant assay (Molecular Probes, Inc. Eugene, Oreg.).
Cellular toxicity of NSE-1 was tested in cell culture. NIH3T3-ER fibroblasts (Stratagene) were seeded into 96-well plates, allowed to attach for 24 hours in DMEM supplemented with 10% v/v fetal bovine serum (FBS). The medium was then replaced with DMEM-10% FBS containing ecdysoid drugs or solvent vehicle. Ethanol and DMSO were vehicle controls for ponasterone A and NSE-1, respectively. The cells were allowed to grow for 48 hours, at the end of which the cells were permeabilized and the amount of DNA in each well quantified with the CyQuant assay (Molecular Probes). […] The data are summarized in FIG. 1 (each measurement is the mean of 6 wells).

[6] = system: EGFP reporter gene under ecdysone promoter control in NIH3T3-ER cells; assay: Induction of reporter gene expression in transiently-transfected cells; format: cell-based; settings: 30 μM, 48 hours, single-cell microfluorimetry, NIH3T3-ER cells with pEGSH-EGFP
Description: NIH3T3-ER cells were transiently transfected with a plasmid pEGSH-GFP carrying the reporter eGFP gene under ecdysone promoter control. The transfected cells were treated with 10 μM ponasterone A, or 30 μM NSE-1, or plain medium for 48 hours and then screened for induction of eGFP expression by single-cell microfluorimetry.
NIH3T3-ER cells, in which expression of a modified ecdysone receptor and the retinoid X co-receptor are driven by the CMV promoter, were transiently transfected with the pEGSH-EGFP plasmid using FuGene 6 transfection reagent. The transfected cells were treated with 30 μM NSE-1 or vehicle for 48 hours and then screened for induction of EGFP expression by single-cell microfluorimetry.

[7] = system: mice; assay: Toxicity in animals (intraperitoneal injections); format: in vivo; settings: 8 mice, 32.5 mg/ml suspension, six 200-μl aliquots at 12-hour intervals
Description: NSE-1 was suspended (32.5 mg/ml) in carrier vehicle consisting of 15% w/v Pluronic F127 surfactant (BASF Corp., Wyandotte, Mich.) and 3% v/v dimethylsulfoxide in phosphate buffered saline (PBS, pH 7). […] These observations give at least preliminary data showing that NSE-1 is not acutely toxic to mammals.
NSE-1 was suspended (32.5 mg/ml) in vehicle consisting of 15% w/v Pluronic F127 surfactant (BASF Corp., Wyandotte, Mich.) and 3% v/v dimethylsulfoxide in phosphate buffered saline (PBS, pH 7).

| Structure (SMILES) | activation of the ecdysone receptor [1] | induction of expression of the EGFP-Kir2.1 fusion protein [2] | activity in inducing expression of reporter genes under ecdysone promoter control, relative to ponasterone A [3] | concentrations required for activating the ecdysone system [3] | solubility [4] [µM] | growth capacity of the cells (amount of DNA, CyQuant) ([5]; 10 μM) | growth capacity of the cells (amount of DNA, CyQuant) ([5]; 30 μM) | growth capacity of the cells (amount of DNA, CyQuant) ([5]; 100 μM) | induction of EGFP expression [6] | signs of intoxication [7] |
| --- | --- | --- | --- | --- | --- | --- | --- | --- | --- | --- |
| CC(C)(O)CC[C@@H](O)[C@](C)(O)[C@H]1CC[C@@]2(O)C3=CC(=O)[C@@H]4C[C@@H](O)[C@@H](O)C[C@]4(C)[C@H]3CC[C@]12C [20-hydroxy-ecdysone] | moderately activated |  |  |  |  |  |  |  |  |  |
| CCc1c(OC)cccc1C(=O)NN(C(=O)c1cc(C)cc(C)c1)C(C)(C)C [NSE-1, 1-(3,5-dimethylbenzoyl)-1-tert-butyl-2-(2-ethyl-3-methoxybenzoyl)hydrazine] |  | can strongly induce expression | as active as ponasterone A | in the μM range | 47 (≈ 18 µg/mL) | Neither Ponasterone A at 10 μM, nor NSE-1 at 10, 30 or 100 μM significantly affected the growth capacity of the cells | Neither Ponasterone A at 10 μM, nor NSE-1 at 10, 30 or 100 μM significantly affected the growth capacity of the cells | Neither Ponasterone A at 10 μM, nor NSE-1 at 10, 30 or 100 μM significantly affected the growth capacity of the cells | efficacy of NSE-1 in inducing transgenes in cultured cell lines; also recorded: can induce EGFP reporter expression | did not produce any signs of intoxication |
| CC(C)CC[C@@H](O)[C@](C)(O)[C@H]1CC[C@@]2(O)C3=CC(=O)[C@@H]4C[C@@H](O)[C@@H](O)C[C@]4(C)[C@H]3CC[C@]12C [Ponasterone A, reference compound] | much more robustly activated | can strongly induce expression |  | in the μM range |  | Neither Ponasterone A at 10 μM, nor NSE-1 at 10, 30 or 100 μM significantly affected the growth capacity of the cells |  |  |  |  |
| CC(C)CC[C@@H](O)[C@](C)(O)[C@H]1CC[C@@]2(O)C3=CC(=O)[C@]4(O)C[C@@H](O)[C@@H](O)C[C@]4(C)[C@H]3[C@H](O)C[C@]12C [muristerone A] | much more robustly activated |  |  |  |  |  |  |  |  |  |
